Reference: patent US12240839B2, “Cyclobutyl dihydroquinoline sulfonamide compounds” (AMGEN INC., priority 2020, dated 2025)

system: CYP3A4; experiment: Human CYP3A4 induction assay (mRNA, cryopreserved human hepatocytes); settings: 10 uM test compound, 72 hours, percent of control (rifampin positive control)
Description: Human CYP3A4 Induction Assay
Cryopreserved human hepatocytes were seeded in 96-well collagen coated plates at 70,000 cells per well in hepatocyte plating media (HPM, final concentrations: 1× Dulbecco's Modified Eagle's Medium, 0.1 μM dexamethasone, 10% fetal bovine serum, 1×ITS, 1×PSG) followed by incubation at 37° C. under 5% CO2 and 90% relative humidity for 2 days to allow hepatocytes to form a confluent layer. On Day 3, hepatocytes were treated with either test compound or rifampin (20 μM, positive control for CYP3A induction) prepared in hepatocyte incubation media ((HIM, final concentrations: 1× William's Medium E, 0.1 μM dexamethasone, 1×ITS, 1×PSG). Treatment was performed for 72 hours with either 2 concentrations (2 μM or 10 μM) or a range of concentrations (0.001 μM to 100 μM) of the test compound to obtain full dose-response curve. Fresh media containing the relevant concentrations of the test compound was replaced every day until the samples were processed. After 72 hours of incubation, samples were processed for mRNA analysis using bDNA technology using manufacturer's instructions (Affymetrix, Fremont, CA). Cell viability was tested at the end of the experiment using MTT assay kit (Roche Diagnostics, Basel, Switzerland). Data was analyzed and presented as percent of control (POC) and Emax and EC50 obtained when appropriate according to guidance from Center for Drug Evaluation and Research (CDER), 2006, Guidance for Industry, Drug Interaction Studies—Study Design, Data Analysis, and Implications for Dosing and Labeling.

Structure (SMILES) | Hu CYP3A4 mRNA Induction (10 uM POC)
COc1cc(C2CC(F)(F)C2)c(F)cc1-n1c(=O)ccc2cc(S(=O)(=O)Nc3ccon3)ccc21 (atropisomer, axis not shown; (P)) [Example 4, (P)-1-(4-(3,3-difluorocyclobutyl)-5-fluoro-2-methoxyphenyl)-N-(isoxazol-3-yl)-2-oxo-1,2-dihydroquinoline-6-sulfonamide] | 14.71%
COc1cc([C@H]2C[C@](F)(C(F)(F)F)C2)c(Cl)cc1-n1c(=O)ccc2cc(S(=O)(=O)Nc3ccon3)ccc21 (atropisomer, axis not shown; (P)) [Example 10, cis-(P)-1-(5-chloro-4-(3-fluoro-3-(trifluoromethyl)cyclobutyl)-2-methoxyphenyl)-N-(isoxazol-3-yl)-2-oxo-1,2-dihydroquinoline-6-sulfonamide] | 5.66%
COc1cc([C@H]2C[C@@](F)(C(F)(F)F)C2)c(Cl)cc1-n1c(=O)ccc2cc(S(=O)(=O)Nc3ccon3)ccc21 (atropisomer, axis not shown; (P)) [Example 11, trans-(P)-1-(5-chloro-4-(3-fluoro-3-(trifluoromethyl)cyclobutyl)-2-methoxyphenyl)-N-(isoxazol-3-yl)-2-oxo-1,2-dihydroquinoline-6-sulfonamide] | 7.29%
COc1cc(C2CCC2)c(F)cc1-n1c(=O)ccc2cc(S(=O)(=O)Nc3ccon3)ccc21 (atropisomer, axis not shown; (P)) [Example 14, (P)-1-(4-cyclobutyl-5-fluoro-2-methoxyphenyl)-N-(isoxazol-3-yl)-2-oxo-1,2-dihydroquinoline-6-sulfonamide] | 18.3%
COc1cc([C@H]2C[C@H](C(F)(F)F)C2)c(F)cc1-n1c(=O)ccc2cc(S(=O)(=O)Nc3ncccn3)ccc21 (atropisomer, axis not shown; (P)) [Example 15, trans-(P)-1-(5-fluoro-2-methoxy-4-(3-(trifluoromethyl)cyclobutyl)phenyl)-2-oxo-N-(pyrimidin-2-yl)-1,2-dihydroquinoline-6-sulfonamide] | 36%
COc1cc([C@H]2C[C@@H](C(F)(F)F)C2)c(Cl)cc1-n1c(=O)ccc2cc(S(=O)(=O)Nc3ncccn3)ccc21 (atropisomer, axis not shown; (P)) [Example 16, cis-(P)-1-(5-chloro-2-methoxy-4-(3-(trifluoromethyl)cyclobutyl)phenyl)-2-oxo-N-(pyrimidin-2-yl)-1,2-dihydroquinoline-6-sulfonamide] | 130.1%
COc1cc([C@H]2C[C@H](C(F)(F)F)C2)c(Cl)cc1-n1c(=O)ccc2cc(S(=O)(=O)Nc3ncccn3)ccc21 (atropisomer, axis not shown; (P)) [Example 17, trans-(P)-1-(5-chloro-2-methoxy-4-(3-(trifluoromethyl)cyclobutyl)phenyl)-2-oxo-N-(pyrimidin-2-yl)-1,2-dihydroquinoline-6-sulfonamide] | 61.91%
COc1cc(C2CCC2)c(Cl)cc1-n1c(=O)ccc2cc(S(=O)(=O)Nc3ncccn3)ccc21 (atropisomer, axis not shown; (P)) [Example 18, (P)-1-(5-chloro-4-cyclobutyl-2-methoxyphenyl)-2-oxo-N-(pyrimidin-2-yl)-1,2-dihydroquinoline-6-sulfonamide] | 20.78%
COc1cc([C@H]2C[C@H](C(F)(F)F)C2)c(Cl)cc1-n1c(=O)ccc2cc(S(=O)(=O)Nc3cccnn3)ccc21 (atropisomer, axis not shown; (P)) [Example 19, trans-(P)-1-(5-chloro-2-methoxy-4-(3-(trifluoromethyl)cyclobutyl)phenyl)-2-oxo-N-(pyridazin-3-yl)-1,2-dihydroquinoline-6-sulfonamide] | 60.73%
COc1cc([C@H]2C[C@H](C(F)(F)F)C2)c(C)cc1-n1c(=O)ccc2cc(S(=O)(=O)Nc3ccon3)ccc21 (atropisomer, axis not shown; (P)) [Example 20, trans-(P)—N-(isoxazol-3-yl)-1-(2-methoxy-5-methyl-4-(3-(trifluoromethyl)cyclobutyl)phenyl)-2-oxo-1,2-dihydroquinoline-6-sulfonamide] | 42.22%
COc1cc(C2CCC2)c(Cl)cc1-n1c(=O)ccc2cc(S(=O)(=O)Nc3ccon3)ccc21 (atropisomer, axis not shown; (P)) [Example 21, (P)-1-(5-chloro-4-cyclobutyl-2-methoxyphenyl)-N-(isoxazol-3-yl)-2-oxo-1,2-dihydroquinoline-6-sulfonamide] | 17.07%
COc1cc(C2CCC2)c(C)cc1-n1c(=O)ccc2cc(S(=O)(=O)Nc3ccon3)ccc21 (atropisomer, axis not shown; (P)) [Example 22, (P)-1-(4-cyclobutyl-2-methoxy-5-methylphenyl)-N-(isoxazol-3-yl)-2-oxo-1,2-dihydroquinoline-6-sulfonamide] | 24.14%
COc1cc(C2CCC2)c(F)cc1-n1c(=O)ccc2cc(S(=O)(=O)Nc3cccnn3)ccc21 (atropisomer, axis not shown; (P)) [Example 23, (P)-1-(4-cyclobutyl-5-fluoro-2-methoxyphenyl)-2-oxo-N-(pyridazin-3-yl)-1,2-dihydroquinoline-6-sulfonamide] | 14.37%
COc1cc(C2CCC2)c(F)cc1-n1c(=O)ccc2cc(S(=O)(=O)Nc3ncco3)ccc21 (atropisomer, axis not shown; (P)) [Example 24, (P)-1-(4-cyclobutyl-5-fluoro-2-methoxyphenyl)-N-(oxazol-2-yl)-2-oxo-1,2-dihydroquinoline-6-sulfonamide] | 89.26%
COc1cc(C2CCC2)ccc1-n1c(=O)ccc2cc(S(=O)(=O)Nc3ccon3)ccc21 (atropisomer, axis not shown; (P)) [Example 25, (P)-1-(4-cyclobutyl-2-methoxyphenyl)-N-(isoxazol-3-yl)-2-oxo-1,2-dihydroquinoline-6-sulfonamide] | 18.57%
COc1cc(C2CCC2)ccc1-n1c(=O)ccc2cc(S(=O)(=O)Nc3ncccn3)ccc21 (atropisomer, axis not shown; (P)) [Example 26, (P)-1-(4-cyclobutyl-2-methoxyphenyl)-2-oxo-N-(pyrimidin-2-yl)-1,2-dihydroquinoline-6-sulfonamide] | 14.58%
COc1cc(C2CCC2)c(C)cc1-n1c(=O)ccc2cc(S(=O)(=O)Nc3ncccn3)ccc21 (atropisomer, axis not shown; (P)) [Example 27, (P)-1-(4-Cyclobutyl-2-Methoxy-5-Methylphenyl)-2-Oxo-N-(Pyrimidin-2-Yl)-1,2-Dihydroquinoline-6-Sulfonamide] | 48.14%
COc1cc(C2CCC2)c(F)cc1-n1c(=O)ccc2cc(S(=O)(=O)Nc3ncccn3)ccc21 (atropisomer, axis not shown; (P)) [Example 28, (P)-1-(4-cyclobutyl-5-fluoro-2-methoxyphenyl)-2-oxo-N-(pyrimidin-2-yl)-1,2-dihydroquinoline-6-sulfonamide] | 60.29%
COc1cc(C2CCC2)ccc1-n1c(=O)ccc2cc(S(=O)(=O)Nc3ncco3)ccc21 (atropisomer, axis not shown; (P)) [Example 29, (P)-1-(4-cyclobutyl-2-methoxyphenyl)-N-(oxazol-2-yl)-2-oxo-1,2-dihydroquinoline-6-sulfonamide] | 34.63%
COc1cc(C2CCC2)c(Cl)cc1-n1c(=O)ccc2cc(S(=O)(=O)Nc3ncco3)ccc21 (atropisomer, axis not shown; (P)) [Example 32, (P)-1-(5-chloro-4-cyclobutyl-2-methoxyphenyl)-N-(oxazol-2-yl)-2-oxo-1,2-dihydroquinoline-6-sulfonamide] | 88%
COc1cc(C2CCC2)c(C)cc1-n1c(=O)ccc2cc(S(=O)(=O)Nc3ncco3)ccc21 (atropisomer, axis not shown; (P)) [Example 34, (P)-1-(4-cyclobutyl-2-methoxy-5-methylphenyl)-N-(oxazol-2-yl)-2-oxo-1,2-dihydroquinoline-6-sulfonamide] | 69.54%
COc1cc([C@H]2C[C@H](C(F)(F)F)C2)ccc1-n1c(=O)ccc2cc(S(=O)(=O)Nc3ccon3)ccc21 (atropisomer, axis not shown; (P)) [Example 35, trans-(P)—N-(isoxazol-3-yl)-1-(2-methoxy-4-(3-(trifluoromethyl)cyclobutyl)phenyl)-2-oxo-1,2-dihydroquinoline-6-sulfonamide] | 13.33%
COc1cc([C@H]2C[C@H](C(F)(F)F)C2)ccc1-n1c(=O)ccc2cc(S(=O)(=O)Nc3ncccn3)ccc21 (atropisomer, axis not shown; (P)) [Example 36, trans-(P)-1-(2-methoxy-4-((1R,3R)-3-(trifluoromethyl)cyclobutyl)phenyl)-2-oxo-N-(pyrimidin-2-yl)-1,2-dihydroquinoline-6-sulfonamide] | 19.16%
COc1cc([C@H]2C[C@H](C(F)(F)F)C2)ccc1-n1c(=O)ccc2cc(S(=O)(=O)Nc3cccnn3)ccc21 (atropisomer, axis not shown; (P)) [Example 38, trans-(P)-1-(2-methoxy-4-(3-(trifluoromethyl)cyclobutyl)phenyl)-2-oxo-N-(pyridazin-3-yl)-1,2-dihydroquinoline-6-sulfonamide] | 4.43%
COc1cc([C@H]2C[C@H](C(F)(F)F)C2)c(F)cc1-n1c(=O)ccc2cc(S(=O)(=O)Nc3cccnn3)ccc21 (atropisomer, axis not shown; (P)) [Example 39, trans-(P)-1-(5-fluoro-2-methoxy-4-(3-(trifluoromethyl)cyclobutyl)phenyl)-2-oxo-N-(pyridazin-3-yl)-1,2-dihydroquinoline-6-sulfonamide] | 21.68%
COc1cc([C@H]2C[C@H](C(F)(F)F)C2)c(F)cc1-n1c(=O)ccc2cc(S(=O)(=O)Nc3ccon3)c(F)cc21 (atropisomer, axis not shown; (P)) [Example 40, (P)-7-fluoro-1-(5-fluoro-2-methoxy-4-((1R,3R)-3-(trifluoromethyl)cyclobutyl)phenyl)-N-(isoxazol-3-yl)-2-oxo-1,2-dihydroquinoline-6-sulfonamide] | 74.43%
